Assay results taken from patent publication US12653883B2 (priority 2018, dated 2026).
Several values for one entry are separate records, joined by “and”; a condition that tells them apart may be missing. Equal values may be shown once.

What was measured:
[1] = tested on: C57BL/6J mice; settings: mouse, in vivo
[2] = tested on: Balb/c mice; settings: mouse, in vivo

C[C@@H]1CCN(C(=O)CC#N)C[C@@H]1N(C)c1ncnc2[nH]ccc12 [Tofacitinib]
Increase in luciferase expression by pretreatment [1]: ~60 fold | Mean antigen-specific T-cells, IFNg+ (% of CD8) [2]: 13 % of CD8 and 12.9 % of CD8
